This note sets out measurements from patent publication US20200095236A1, “ANTIBACTERIAL COMPOUNDS” (FORGE THERAPEUTICS, INC., priority 2017, published 2020).

In brackets after ≈: the same amount, converted by molar mass. Like-named read-outs stand apart in the source and are kept apart here. Where only a bound is given, the exact number is not on record here.

Common to all, as to assay type: cell-based
One experiment has as its system E. coli. The experiment is described as follows: Bacterial susceptibility testing, MIC by broth microdilution (CLSI). The settings on record: for MIC: Escherichia coli, read-out: E. coli MIC. The protocol:
(§1) Minimal inhibitory concentrations (MIC) were determined by the broth microdilution method in accordance with the Clinical and Laboratory Standards Institute (CLSI) guidelines. In brief, organism suspensions were adjusted to a 0.5 McFarland standard to yield a final inoculum between 3×10^5 and 7×10^5 colony-forming units (CFU)/mL. Drug dilutions and inocula were made in sterile, cation adjusted Mueller-Hinton Broth (Beckton Dickinson). An inoculum volume of 100 μL was added to wells containing 100 μL of broth with 2-fold serial dilutions of drug. All inoculated microdilution trays were incubated in ambient air at 35° C. for 18-24 h. Following incubation, the lowest concentration of the drug that prevented visible growth (OD600 nm<0.05) was recorded as the MIC. Performance of the assay was monitored by the use of laboratory quality-control strains and levofloxacin, a compound with a defined MIC spectrum, in accordance with CLSI guidelines.

In the next experiment the test system is S. aureus. The description is as above. The note with it: for MIC: Staphylococcus aureus, read-out: S. aureus MIC. The protocol:
as §1

The next experiment has as its system K. pneumoniae. The description is as above. The settings on record: for MIC: Klebsiella pneumoniae, read-out: K. pneumoniae MIC. The protocol: as §1
The test system of experiment [1] is TLR-4 activity of A. baumannii culture supernatants. The experiment is described as follows: TLR4 assay: TLR4 activity of A. baumannii culture supernatants in HEK-Blue-hTLR4 cells. The settings on record: Acinetobacter baumannii, HEK-Blue hTLR4, read-out: % TLR-4 activity. Here is the method: The TLR4 assay measures activity of diluted filter-sterilized A. baumannii culture supernatants. The assay was performed as described in Lin et al, Mbio, 2012. Briefly, A. baumannii was passaged to mid log-phase in the presence of Forge LpxC inhibitors. Culture supernatants were harvested, filter-sterilized and diluted 1:1000. TLR4 activity of the supernatants was tested using HEK-Blue-hTLR4 cells (Invivogen) that carry NF-kB and AP-1 driven SEAP (secreted embryonic alkaline phosphatase) reporter gene.
Exemplary TLR4 assay data (% TLR-4 activity) for compounds in embodiments of the disclosure.

The mark [2] stands for this setting: broth microdilution, 35° C., 18-24 h.

As a reminder, the MIC is the lowest concentration found to suppress growth. Regarding `O=C(Nc1cnoc1)C(Cc1ccc(C#Cc2ccc(CN3CCOCC3)cc2)cc1)c1nc[nH]c(=O)c1O` (centres unmarked) [Compound 4, 2-(5-hydroxy-6-oxo-1,6-dihydropyrimidin-4-yl)-N-(isoxazol-4-yl)-3-(4-((4-(morpholinomethyl)phenyl)ethynyl)phenyl) propanamide], the minimum inhibitory concentration (MIC) with E. coli (setting [2]) is 1 to 8 µg/mL (≈ 1.9 to 15.2 µM); with S. aureus (setting [2]), over 32 µg/mL; with K. pneumoniae (setting [2]), over 32 µg/mL.
Turning to `CNC(=O)C(Cc1ccc(C#Cc2ccc(CN3CCOCC3)cc2)cc1)c1nc[nH]c(=O)c1O` (centres unmarked) [Compound 5, 2-(5-hydroxy-6-oxo-1,6-dihydropyrimidin-4-yl)-N-methyl-3-(4-((4-(morpholinomethyl)phenyl)ethynyl)phenyl) propanamide], the minimum inhibitory concentration (MIC) in the experiment with E. coli (setting [2]) is 1 to 8 µg/mL (≈ 2.12 to 16.9 µM); in the experiment on S. aureus (setting [2]), over 32 µg/mL; in the experiment on K. pneumoniae (setting [2]), over 32 µg/mL.
Regarding `C=CCNC(=O)C(Cc1ccc(C#Cc2ccc(CN3CCOCC3)cc2)cc1)c1nc[nH]c(=O)c1O` (centres unmarked) [Compound 6, N-allyl-2-(5-hydroxy-6-oxo-1,6-dihydropyrimidin-4-yl)-3-(4-((4-(morpholinomethyl)phenyl)ethynyl)phenyl)propanamide], the MIC in the experiment on E. coli (setting [2]) was 8 to 32 µg/mL (≈ 16 to 64.2 µM); in the experiment with S. aureus (setting [2]), over 32 µg/mL; in the experiment with K. pneumoniae (setting [2]) it was over 32 µg/mL.
With `O=C(NCCO)C(Cc1ccc(C#Cc2ccc(CN3CCOCC3)cc2)cc1)c1nc[nH]c(=O)c1O` (centres unmarked) [Compound 7, 2-(5-hydroxy-6-oxo-1,6-dihydropyrimidin-4-yl)-N-(2-hydroxyethyl)-3-(4-((4-(morpholinomethyl)phenyl)ethynyl)phenyl) propanamide], the minimum inhibitory concentration (MIC) is 8 to 32 µg/mL (≈ 15.9 to 63.7 µM) in the experiment with E. coli (setting [2]), over 32 µg/mL with S. aureus (setting [2]) and over 32 µg/mL in the experiment on K. pneumoniae (setting [2]).
In the case of `O=C(Nc1ccn[nH]1)C(Cc1ccc(C#Cc2ccc(CN3CCOCC3)cc2)cc1)c1nc[nH]c(=O)c1O` (centres unmarked) [Compound 8, 2-(5-hydroxy-6-oxo-1,6-dihydropyrimidin-4-yl)-3-(4-((4-(morpholinomethyl)phenyl)ethynyl)phenyl)-N-(1H-pyrazol-5-yl)propanamide], the MIC with E. coli (setting [2]), in the experiment on S. aureus (setting [2]) and with K. pneumoniae (setting [2]) was over 32 µg/mL each time.
As for `O=C(Nc1cnc[nH]1)C(Cc1ccc(C#Cc2ccc(CN3CCOCC3)cc2)cc1)c1nc[nH]c(=O)c1O` (centres unmarked) [Compound 9, 2-(5-hydroxy-6-oxo-1,6-dihydropyrimidin-4-yl)-N-(1H-imidazol-5-yl)-3-(4-((4-(morpholinomethyl)phenyl)ethynyl)phenyl) propanamide], the minimum inhibitory concentration (MIC) with E. coli (setting [2]), in the experiment with S. aureus (setting [2]) and in the experiment on K. pneumoniae (setting [2]) was over 32 µg/mL in each case.
For the molecule `NCCNC(=O)C(Cc1ccc(C#Cc2ccc(CN3CCOCC3)cc2)cc1)c1nc[nH]c(=O)c1O` (centres unmarked) [Compound 10, N-(2-aminoethyl)-2-(5-hydroxy-6-oxo-1,6-dihydropyrimidin-4-yl)-3-(4-((4-(morpholinomethyl)phenyl)ethynyl)phenyl) propanamide], the minimum inhibitory concentration (MIC) with E. coli (setting [2]) is 1 to 8 µg/mL (≈ 1.99 to 15.9 µM); in the experiment on S. aureus (setting [2]), over 32 µg/mL; in the experiment with K. pneumoniae (setting [2]) it was 8 to 32 µg/mL (≈ 15.9 to 63.8 µM).
As for `O=C(Nc1nnn[nH]1)C(Cc1ccc(C#Cc2ccc(CN3CCOCC3)cc2)cc1)c1nc[nH]c(=O)c1O` (centres unmarked) [Compound 11, 2-(5-hydroxy-6-oxo-1,6-dihydropyrimidin-4-yl)-3-(4-((4-(morpholinomethyl)phenyl)ethynyl)phenyl)-N-(1H-tetrazol-5-yl)propanamide], the MIC in the experiment on E. coli (setting [2]), in the experiment on S. aureus (setting [2]) and in the experiment with K. pneumoniae (setting [2]) was over 32 µg/mL in each case.
On to `O=C(CF)NCC(Cc1ccc(C#Cc2ccc(CN3CC4CCC(C3)O4)cc2)cc1)c1nc[nH]c(=O)c1O` (centres unmarked) [Compound 13, N-(3-(4-((4-((8-oxa-3-azabicyclo[3.2.1]octan-3-yl)methyl)phenyl)ethynyl)phenyl)-2-(5-hydroxy-6-oxo-1,6-dihydropyrimidin-4-yl)propyl)-2-fluoroacetamide], for which the MIC was 1 to 8 µg/mL (≈ 1.88 to 15.1 µM) with E. coli, over 32 µg/mL in the experiment with S. aureus and 1 to 8 µg/mL (≈ 1.88 to 15.1 µM) in the experiment with K. pneumoniae.
On to `O=C(CF)NCC(Cc1ccc(C#Cc2ccc(CCN3CCOCC3)cc2)cc1)c1nc[nH]c(=O)c1O` (centres unmarked) [Compound 16, 2-fluoro-N-(2-(5-hydroxy-6-oxo-1,6-dihydropyrimidin-4-yl)-3-(4-((4-(2-morpholinoethyl)phenyl)ethynyl)phenyl)propyl)acetamide], for which the values for the minimal inhibitory concentration (MIC) with E. coli, in the experiment with S. aureus and in the experiment on K. pneumoniae were 1 to 8 µg/mL (≈ 1.93 to 15.4 µM), over 32 µg/mL and 8 to 32 µg/mL (≈ 15.4 to 61.7 µM), respectively.
For the molecule `O=C(CF)NCC(Cc1ccc(C#Cc2ccc(CCN3CCOCC3)cc2)cc1)c1nc[nH]c(=O)c1O` (centres unmarked) [Compound 17, 2-fluoro-N-(2-(5-hydroxy-6-oxo-1,6-dihydropyrimidin-4-yl)-3-(4-((4-(2-morpholinoethyl)phenyl)ethynyl)phenyl)propyl) acetamide], the “E. coli MIC” value in the experiment with E. coli (setting [2]) is listed as “B (B: >1 μg/mL to ≤8.0 μg/mL)”. Also, in the experiment on S. aureus (setting [2]), the “S. aureus MIC” value was “D (D: >32 μg/mL)”. In addition, in the experiment with K. pneumoniae (setting [2]), the “K. pneumoniae MIC” value is reported as “C (C: >8.0 μg/mL to ≤32 μg/mL)”.
Turning to `O=C(NCC(Cc1ccc(C#Cc2ccc(CN3CCOCC3)cc2)cc1)c1nc[nH]c(=O)c1O)C(F)(F)F` (centres unmarked) [Compound 18, 2,2,2-trifluoro-N-(2-(5-hydroxy-6-oxo-1,6-dihydropyrimidin-4-yl)-3-(4-((4-(morpholinomethyl)phenyl)ethynyl)phenyl)propyl)acetamide], the MIC in the experiment on E. coli (setting [2]) was 1 to 8 µg/mL (≈ 1.85 to 14.8 µM); with S. aureus (setting [2]), over 32 µg/mL; with K. pneumoniae (setting [2]), 1 to 8 µg/mL (≈ 1.85 to 14.8 µM).
For the molecule `CC(=O)NCC(Cc1ccc(C#Cc2ccc(CN3CCOCC3)cc2)cc1)c1nc[nH]c(=O)c1O` (centres unmarked) [Compound 19, N-(2-(5-hydroxy-6-oxo-1,6-dihydropyrimidin-4-yl)-3-(4-((4-(morpholinomethyl)phenyl)ethynyl)phenyl)propyl)acetamide], the MIC was 1 to 8 µg/mL (≈ 2.06 to 16.4 µM) in the experiment on E. coli (setting [2]), over 32 µg/mL with S. aureus (setting [2]) and 8 to 32 µg/mL (≈ 16.4 to 65.8 µM) with K. pneumoniae (setting [2]).
As to `C=CC(=O)NCC(Cc1ccc(C#Cc2ccc(CN3CCOCC3)cc2)cc1)c1nc[nH]c(=O)c1O` (centres unmarked) [Compound 20, N-(2-(5-hydroxy-6-oxo-1,6-dihydropyrimidin-4-yl)-3-(4-((4-(morpholinomethyl)phenyl)ethynyl)phenyl)propyl)acrylamide], the MIC is 1 to 8 µg/mL (≈ 2.01 to 16 µM) in the experiment with E. coli (setting [2]), over 32 µg/mL in the experiment with S. aureus (setting [2]) and 8 to 32 µg/mL (≈ 16 to 64.2 µM) with K. pneumoniae (setting [2]).
Take `O=c1[nH]cnc(C(CNCCF)Cc2ccc(C#Cc3ccc(CN4CCOCC4)cc3)cc2)c1O` (centres unmarked) [Compound 58, 6-(1-((2-fluoroethyl)amino)-3-(4-((4-(morpholinomethyl)phenyl)ethynyl)phenyl)propan-2-yl)-5-hydroxypyrimidin-4(3H)-one]: in experiment [1], the activity at 4 µg/mL was under 20%, the activity at 8 µg/mL is under 20% and the activity at 16 µg/mL is under 20%.
As to `CCCNCC(Cc1ccc(C#Cc2ccc(CN3CCOCC3)cc2)cc1)c1nc[nH]c(=O)c1O` (centres unmarked) [Compound 60, 5-hydroxy-6-(1-(4-((4-(morpholinomethyl)phenyl)ethynyl)phenyl)-3-(propylamino)propan-2-yl)pyrimidin-4(3H)-one], in experiment [1], the activity at 4 µg/mL was over 80%, the activity at 8 µg/mL is over 80% and the activity at 16 µg/mL is over 80%.
For `N#CC1CCN(Cc2ccc(C#Cc3ccc(CC(C(=O)NCC(F)F)c4nc[nH]c(=O)c4O)cc3)cc2)C1` (centres unmarked) [Compound 102, 3-(4-((4-((3-cyanopyrrolidin-1-yl)methyl)phenyl)ethynyl)phenyl)-N-(2,2-difluoroethyl)-2-(5-hydroxy-6-oxo-1,6-dihydropyrimidin-4-yl)propanamide], in experiment [1], the activity at 4 µg/mL was in the range of 20 to 50%, the activity at 8 µg/mL is under 20% and the activity at 16 µg/mL is under 20%.
For `O=c1[nH]cnc(C2(Cc3ccc(C#Cc4ccc(CN5CCOCC5)cc4)cc3)CC2)c1O` [Compound 246, 5-hydroxy-6-(1-(4-((4-(morpholinomethyl)phenyl)ethynyl)benzyl)cyclopropyl)pyrimidin-4(3H)-one], the MIC in the experiment with E. coli (setting [2]) and in the experiment on K. pneumoniae (setting [2]) was over 32 µg/mL each time.
Regarding `O=c1[nH]cnc(C2(Cc3ccc(C#Cc4ccc(CN[C@@H]5CCOC5)cc4)cc3)CC2)c1O` [Compound 247, (R)-5-hydroxy-6-(1-(4-((4-(((tetrahydrofuran-3-yl)amino)methyl)phenyl)ethynyl)benzyl)cyclopropyl)pyrimidin-4(3H)-one], the MIC in the experiment with E. coli (setting [2]) was 1 to 8 µg/mL (≈ 2.26 to 18.1 µM); in the experiment with K. pneumoniae (setting [2]) it was 8 to 32 µg/mL (≈ 18.1 to 72.5 µM).
As for `O=c1[nH]cnc(C(Cc2ccc(C#Cc3ccc(CN4CCOCC4)cc3)cc2)CN2CCOCC2)c1O` (centres unmarked) [Compound 249, 5-hydroxy-6-(1-morpholino-3-(4-((4-(morpholinomethyl)phenyl)ethynyl)phenyl)propan-2-yl)pyrimidin-4(3H)-one], the results for the minimal inhibitory concentration (MIC) with E. coli (setting [2]) and with K. pneumoniae (setting [2]) were under 1 µg/mL and over 32 µg/mL, respectively.
In the case of `O=c1[nH]cnc(C(CNCCc2cccnc2)Cc2ccc(C#Cc3ccc(CN4CCOCC4)cc3)cc2)c1O` (centres unmarked) [Compound 251, 5-hydroxy-6-(1-(4-((4-(morpholinomethyl)phenyl)ethynyl)phenyl)-3-((2-(pyridin-3-yl)ethyl)amino)propan-2-yl)pyrimidin-4(3H)-one], the MIC in the experiment on E. coli (setting [2]) and in the experiment with K. pneumoniae (setting [2]) was over 32 µg/mL each time.
